Assay results reported in US9388163B2, “Multifunctional radical quenchers for the treatment of mitochondrial dysfunction” (Arizona Board of Regents, a Body Corporate of the State of …, priority 2011, dated 2016).

What was measured:
FRDA cell line = experiment: Trypan blue exclusion cell viability assay, DEM-stressed cells; assay type: cell-based; conditions: FRDA cells stressed with DEM
Experimental: (§1) Friedreich's Ataxia lymphocytes and control cells (Coriell, catalogue number GM158150, and GM158151, respectively) were cultured in RPMI (GIBCO, Grand island, NY, USA) with 15% FBS (Fisher Scientific, TX, USA), 2 mM glutamine (HyClone, South Logan, Utah, USA) and 1% penicillin-streptomycin mix antibiotics (Cellgro, Manassas, Va., USA) supplements. Cells were maintained in the log phase at a concentration of between 1×10^5 and 1×10^6 cells/mL.
V. Trypan Blue Cell Viability Assay
Cell viability determined by trypan blue exclusion assay: This technique was used to assess the cytoprotective effects of the invention compounds in cultured cells pharmacologically treated to induce cell death by GSH depletion. DEM was used to deplete cellular GSH and induce oxidative stress. The viability of DEM-treated cells was determined by their ability to exclude the dye trypan blue. Viable cells exclude trypan blue; whereas, non-viable cells take up the dye and stain blue. Briefly, cells were seeded at a density of 1×10^6 cells/mL and treated with different concentrations of the invention compounds. Cells were incubated at 37° C. in a humidified atmosphere of 5% CO2 in air for three hours with 5 mM DEM. Cell viability was determined by staining cells with 0.4% trypan blue using a hemocytometer. At least 500 cells were counted for each experimental group. At the time of assay, >95% of DEM-treated cells were trypan blue positive; whereas, in non-DEM treated control cell cultures >95% cells were viable. Cell viability was expressed as the percentage of control. Data are expressed as means±S.E.M (n=3).

leukemia CEM lymphocytes = experiment: Suppression of lipid peroxidation (C11-BODIPY 581/591, FACS) in DEM-treated cells; assay type: cell-based; conditions: CEM cells treated with DEM, untreated control 100, treated control 0
Experimental: as §1, with “Leukemic CEM” for “Friedreich's Ataxia lymphocytes and control”, “(ATCC®,” for “(Coriell,”, “CRL-2264)” for “GM158150, and GM158151, respectively)”, “10%” for “15%”
Measurement of C11-BODIPY^581/591 Oxidation in Cell Culture
Lipid peroxidation in cells was detected by utilizing the oxidant-sensitive lipophilic probe C11 BODIPY^581/591. […] Cells were treated with 500 nM C11 BODIPY^581/591 in phenol red-free RPMI-1640 media and incubated at 37° C. in the dark for 30 minutes. The cells were washed twice with phosphate buffered saline and oxidative stress was induced with 5 mM DEM in phenol red-free RPMI-1640 media for 90 minutes. Treated cells were collected by centrifugation at 300×g for 3 minutes and then washed twice with phosphate buffered saline. Cells were re-suspended in 250 μL of phosphate buffered saline and were analyzed by FACS (FACS Calibur flow cytometer, Becton Dickinson) to monitor the change in intensity of the C11 BODIPY^581/591 green (oxidized) fluorescence signal.

[1] = system: bovine heart mitochondrial complex (I, III, IV); experiment: NADH oxidase inhibition assay (beef heart submitochondrial particles); assay type: biochemical
Experimental: X. NADH Oxidase Inhibition Assay
Beef heart mitochondria were obtained by a large-scale procedure. Inverted submitochondrial particles (SMP) were prepared by the method of Matsuno-Yagi and Hatefi (J. Biol. Chem. 260 (1985), p. 14424), and stored in a buffer containing 0.25 M sucrose and 10 mM Tris-HCl (pH 7.4) at −80° C. Inhibitory effects of compounds on bovine heart mitochondrial complex (I, III, IV) were evaluated. Maximal dimethyl sulfoxide concentration never exceeded 2% and had no influence on the control enzymatic activity. Beef heart SMP were diluted to 0.5 mg/mL. The enzymatic activities were assayed at 30° C. and monitored spectrophotometrically with a Beckman Coulter DU-530 (340 nm, ε=6.22 mM^−1 cm^−1). NADH oxidase activity was determined in a reaction medium (2.5 mL) containing 50 mM Hepes, pH 7.5, containing 5 mM MgCl2. The final mitochondrial protein concentration was 30 μg/mL. After the pre-equilibration of SMP with inhibitor for 5 min, the initial rates were calculated from the linear portion of the traces.

CEM leukemia cells = experiment: Suppression of ROS production (DCFH-DA, flow cytometry) in DEM-treated cells; assay type: cell-based; conditions: CEM cells treated with DEM, untreated control 100, treated control 0
Experimental: as §1, with “Leukemic CEM” for “Friedreich's Ataxia lymphocytes and control”, “(ATCC®,” for “(Coriell,”, “CRL-2264)” for “GM158150, and GM158151, respectively)”, “10%” for “15%”
Cellular ROS production can be monitored using 2′,7′-dichlorodihydrofluorescein diacetate (DCFH-DA) (LeBel et al. (1992) Chem. Res. Toxicol. 5, 227-231) (Molecular Probes, Eugene, Oreg., USA), a membrane permeable and oxidant-sensitive fluorescent dye. DCFH-DA is a non-fluorescent derivative of fluorescein that emits fluorescence after being oxidized by hydrogen peroxide and other ROS. The emitted fluorescence is directly proportional to the concentration of hydrogen peroxide. DCFH-DA is nonionic and nonpolar and is easily taken up by cells. Once inside the cell, DCFH-DA is hydrolyzed by cellular esterases to non-fluorescent DCFH which traps the dye in the cell. In the presence of ROS including hydrogen peroxide, DCFH is oxidized to the highly fluorescent compound dichlorofluorescein (DCF). The intracellular DCF fluorescence is used as an index of cellular ROS production.
Cellular oxidative stress was induced by pharmacological depletion of glutathione (GSH) using the chemical diethylmaleate (DEM). […] The compounds tested were prepared by first making stock solutions (1 mM) in dimethylsulfoxide (DMSO). Cells were treated with 5 mM DEM for 30 minutes and collected by centrifugation at 300×g for 3 min and then washed twice with Phosphate Buffer Saline (PBS) (Invitrogen, N.Y., USA). Cells were re-suspended in PBS buffer+10 mM glucose and incubated at 37° C. in the dark for 20 min with 10 μM DCFH-DA. Cells were collected by centrifugation at 300×g for 3 min and then washed twice with PBS buffer. The samples were analyzed immediately by flow cytometry (Becton-Dickinson FACS Caliber), (Cell Quest software, BD Biosciences) using 488 nm excitation laser and FL1-H channel 538 nm emission filter. In each analysis, 10,000 events were recorded after cell debris were electronically gated out. Results obtained were verified by running duplicates and repeating experiments N=3 independent experiments. Authentic hydrogen peroxide was used as a positive control.

SMILES | viability at 0.1 µM (FRDA cell line) [%] | viability at 0.5 µM (FRDA cell line) [%] | viability at 2.5 µM (FRDA cell line) [%] | Scavenging activity (%) (lipid peroxidation) (leukemia CEM lymphocytes; 1 μM) | Scavenging activity (%) (lipid peroxidation) (leukemia CEM lymphocytes; 5 μM) | NADH oxidase (complex I, III, IV) activity (%) ([1]; 5 μM compound) | NADH oxidase (complex I, III, IV) activity (%) ([1]; 10 μM compound) | NADH oxidase (complex I, III, IV) activity (%) ([1]; l μM compound) | % of scavenging activity (ROS) (CEM leukemia cells; 0.25 μM) [%] | % of scavenging activity (ROS) (CEM leukemia cells; 2.5 μM) [%] | % of scavenging activity (ROS) (CEM leukemia cells; 10 μM) [%] | Scavenging activity (%) (lipid peroxidation) (leukemia CEM lymphocytes; 2.5 μM)
CCCCCCCCCCc1c(C)n(O)c(C)c(Cl)c1=O [CPD-13, 3-chloro-5-decyl-1-hydroxy-2,6-dimethylpyridin-4(1H)-one] | 17 ± 3 | 14 ± 2 | 19 ± 5 | 0 | 0 |  |  |  |  |  |  | 
CCCCCCCc1c(C)n(O)c(C)c(N)c1=O [CPD-3, 3-amino-5-heptyl-1-hydroxy-2,6-dimethylpyridin-4(1H)-one] | 19 ± 6 | 19 ± 3 | 25 ± 5 | 14 ± 4.1 | 9.6 ± 2.8 | 76.7 ± 6.9 | 70.4 ± 5.5% | 92.9 ± 10.9% | 4.6 ± 5.4 | 42.2 ± 2.9 | 67.0 ± 5.9 | 20 ± 5.4
C=Cc1c(C)n(O)c(C)c(CCCCCCCCCCCCCCCC)c1=O [CPD-2, 3-hexadecyl-1-hydroxy-2,6-dimethyl-5-vinylpyridin-4(1H)-one] | 10 ± 3 | 14 ± 5 | 15 ± 4 | 7 ± 2.8 | 0 | 12 ± 0.8 | 11.9 ± 1.6% | 20.1 ± 1.4% | 31.1 ± 1.3 | 25.3 ± 5.2 | 35.2 ± 3.9 | 13 ± 4.2
C=Cc1c(C)n(O)c(C)c(CCCCCCC)c1=O [CPD-1, 3-heptyl-1-hydroxy-2,6-dimethyl-5-vinylpyridin-4(1H)-one] | 25 ± 6 | 42 ± 3 | 30 ± 6 | 0 | 0 | 20.7 ± 2.2 | 13.2 ± 1^ % | 29.7 ± 3.8% | 23.4 ± 1.6 | 22.2 ± 3.5 | 20.0 ± 4.4 | 0
CCCCCCCCCCCCCCCCc1c(C)n(O)c(C)c(N)c1=O [CPD-4, 3-amino-5-hexadecyl-1-hydroxy-2,6-dimethylpyridin-4(1H)-one] | 17 ± 5 | 21 ± 9 | 35 ± 9 | 18 ± 2.2 | 94 ± 0.2 | 12.7 ± 1.7 | 10.7 ± 1.3% | 17.1 ± 1^ % | 41.4 ± 14.9 | 81.8 ± 3.7 | 91.0 ± 1.5 | 52 ± 1.5
CCCCCCCCCCCCCCCCc1c(C)n(O)c(C)cc1=O [CPD-8, 3-hexadecyl-1-hydroxy-2,6-dimethylpyridin-4(1H)-one] | 19 ± 6 | 15 ± 5 | 18 ± 2 | 10 ± 4.3 | 20 ± 3.4 |  |  |  |  |  |  | 
CCCCCCCc1c(C)n(O)c(C)c(Cl)c1=O [CPD-12, 3-chloro-5-heptyl-1-hydroxy-2,6-dimethylpyridin-4(1H)-one] | 15 ± 6 | 29 ± 3 | 39 ± 3 | 0 | 0 |  |  |  |  |  |  | 
CCCCCCCc1c(C)n(O)c(C)cc1=O [CPD-6, 3-heptyl-1-hydroxy-2,6-dimethylpyridin-4(1H)-one] | 27 ± 7 | 30 ± 13 | 24 ± 6 | 0 | 0 |  |  |  |  |  |  | 
CCCCCCCCCCc1c(C)n(O)c(C)cc1=O [CPD-7, 3-decyl-1-hydroxy-2,6-dimethylpyridin-4(1H)-one] | 36 ± 6 | 14 ± 5 | 20 ± 3 | 0 | 0 |  |  |  |  |  |  | 
CCCCCCCc1c(C)n(O)c(C)c(Br)c1=O [CPD-9, 3-bromo-5-heptyl-1-hydroxy-2,6-dimethylpyridin-4(1H)-one] | 31 ± 12 | 28 ± 7 | 32 ± 5 | 0 | 0 |  |  |  |  |  |  | 
CCCCCCCCCCCCCCCCc1c(C)n(O)c(C)c(Br)c1=O [CPD-11, 3-bromo-5-hexadecyl-1-hydroxy-2,6-dimethylpyridin-4(1H)-one] | 12 ± 5 | 6 ± 3 | 8 ± 3 | 7 ± 2.3 | 15 ± 3.3 |  |  |  |  |  |  | 
CCCCCCCCCCc1c(C)n(O)c(C)c(Br)c1=O [CPD-10, 3-bromo-5-decyl-1-hydroxy-2,6-dimethylpyridin-4(1H)-one] | 19 ± 6 | 20 ± 13 | 32 ± 8 | 0 | 0 |  |  |  |  |  |  | 
